This is an account of results in a melting point compilation (Tetko et al.; mined from patent text by program, amines drawn as free bases though some values may be those of a salt).

Usually melting point stands for the temperature of the solid-liquid transition.

With `CS(=O)(=O)NC(=O)C(Cc1ccc(OCc2ccccc2)cc1)NC(=O)c1cn2cc(-c3ccc(Cl)cc3)ccc2n1` (stereo not given), the melting point was 232 °C. For `O=C(O)Cn1cc(Cc2nc3c(F)c(F)cc(F)c3s2)c2c(Cl)cccc21` the value was 203 to 206 °C. For `Cc1cc(OCC(=O)O)c2sc3ccccc3c(=O)c2c1C` the value was 226 to 229 °C; for `CCOC(=O)c1cc2cc(N(C)C)ccc2s1`, 95 to 96 °C.

Molecule `CC(CN1CCN(C(c2ccc(F)cc2)c2ccc(F)cc2)CC1)Cn1c(=O)[nH]c2ccccc21` (stereo not given) displayed a melting point of 176 °C.

`COc1ccc2c(c1)c(CC(=O)O)c(C)n2C(=O)c1ccc(F)cc1`: the melting point was in the range of 130 to 132 °C. For the molecule `Cn1nc(N)c2sc3cc(O)c(O)cc3c21`, the melting point fell in the range of 305 to 307 °C. Under `O=c1ccn(CCO)c(C(O)c2ccc(Cl)cc2)c1O` (stereo not given) stands 184 to 186 °C; under `Cc1ccc(C[C@H](NC(=O)[C@@H](NC(=O)OCc2ccccn2)C(C)C)[C@H](O)[C@H](Cc2ccccc2)NC(=O)[C@@H](NC(=O)OCc2ccccn2)C(C)C)cc1`, 195 to 198 °C; under `Cn1cc(C2=C(c3cn4c5c(cccc35)CCC4)C(=O)OC2=O)c2ccccc21`, 217 to 219 °C. Molecule `CCC1(C)C(=O)c2c(cc(OCC(=O)O)c(Cl)c2Cl)C1c1ccccc1` (stereo not given) registered a melting point of 192 °C.

In the case of `C1=Cc2ccccc2C(C2CCN(C3CCCCC3)CC2)c2ccccc21`, the melting point was 162 to 164 °C. Under `COc1cc2c(N3CCc4ccc(Cl)cc43)ncnc2c(OC)c1OC` stands 139 to 143 °C; under `CC(Cc1ccc(F)cc1F)C(N)=O` (stereo not given), 90 to 91 °C. Under `O=C(O)Cc1ccc(C2CCCCC2)c2ccccc12` stands 161 to 163 °C. For `CN1CCOC(CC23CC(c4ccccc42)c2ccccc23)C1` (stereo not given) the value was 136 to 137 °C; for `Cc1cc(C)cc(Oc2ccc([N+](=O)[O-])cc2S(=O)(=O)N2CCN(C(=O)OC(C)(C)C)CC2)c1`, 232 to 233 °C; for `COn1nnc2cc(Cn3ccnc3)ccc21`, 94.3 °C. Take `Cc1oc(-c2ccccc2)nc1CCOc1ccc(C=O)cc1`: the melting point was in the range of 79 to 81 °C. As to `COc1ccccc1-c1cn(C)cc(-c2cccc(C(F)(F)F)c2)c1=O`, the melting point lay within 193 to 196 °C. Take `O=C1C=C/C(=C/c2cccc(C(F)(F)F)c2)O1`: the melting point lay within 69 to 71 °C. On to `Cc1nn(C)c2c1c1oc(=O)c(Sc3ccccc3)c(O)c1c(=O)n2-c1ccc(OC(F)(F)F)cc1`, for which the melting point was 136 to 139 °C.

`CC(C)c1nc2ccn(Cc3ccccc3)c(=O)c2n1Cc1cccc(-c2ccc(C(=N)N)cc2)c1` returned a melting point greater than 300 °C. Under `COc1cc(OC)c(F)c(N2Cc3cnc(SC)nc3N(C3CCCC3)C2=O)c1F` stands 167 to 169 °C; under `Nc1ccc([N+](=O)[O-])cc1S(=O)(=O)CCc1ccc(S(=O)(=O)O)cc1`, 248 to 253 °C. Under `COc1ccc(-n2c(-c3sc(NC(=O)c4ccccc4)nc3-c3ccccc3)nc3ccccc3c2=O)cc1` stands greater than 275 °C; under `CC1CCCCC1Nc1c(C(=O)O)cnn2cccc12` (stereo not given), 195 °C; under `CSCCOc1ccc(-c2coc3ccc(-c4nnc(C)o4)cc23)cc1`, 89 to 90 °C. Turning to `Cc1cc(SC2=C(O)CC(CCc3ccc(O)cc3)(CCc3ccc(O)cc3)OC2=O)c(C(C)(C)C)cc1N`, the melting point was in the range of 140 to 145 °C. Molecule `COC(=O)CCCC#Cc1cc(Cl)ccc1NS(=O)(=O)c1cc(C)cc(C)c1` had a melting point of 92 to 94 °C. For `O=[N+]([O-])c1ccc(OC23CC4CC(CC(C4)C2)C3)cc1` the value was 132 to 134 °C; for `CNC(=O)c1sc(NC(C)=O)nc1CCc1ccc(NC(NC(=O)OC(C)(C)C)NC(=O)OC(C)(C)C)cc1`, 245 to 246 °C; for `CC(c1oc2ccccc2c(=O)c1-c1cccc(F)c1)n1nc(-c2ccc(N3CCOCC3)nc2)c2c(N)ncnc21` (stereo not given), 269 to 271 °C. Under `FC(F)(F)c1cc(Cl)c(Oc2cc(-c3ccc(Cl)cc3)[nH]n2)c(Cl)c1` stands 181 to 183 °C; under `N#CSCOc1cc(Cl)c(Cl)cc1Cl`, 103 to 105 °C. `O=c1[nH][nH]c(=O)c2nc3ccccc3cc12` returned a melting point of 345 to 349 °C. For `CCCN(CCC)C(=O)n1cc(C)c2c1CC1(c3cccc(O)c3)CCN(CC)CC1C2` (stereo not given) the value was 151 to 153 °C; for `COc1ccc(C2=C(N)c3cc(OC)ccc3C2=O)cc1`, 213 °C; for `CCCCCc1oc(-c2ccc(Cl)cc2)nc1CC(=O)OCC`, 52 to 53 °C. `CSc1ccc2c(SCc3ccc(N(C)C)cc3)ccnc2c1`: the melting point fell in the range of 168 to 170 °C. Under `CCOCn1cc(F)c(=O)n(C(=O)c2cccc(C(=O)Oc3nc(OC(=O)c4ccc(Cl)cc4)ccc3C#N)c2)c1=O` stands 156 to 158 °C; under `CCc1nc(CN(C)C(=O)N[C@H](C(=O)N[C@@H](Cc2ccccc2)C[C@H](O)[C@H](Cc2ccccc2)NC(=O)OCc2cncs2)C(C)C)cs1`, 70 to 71 °C; under `CC(C)(C)[Si](C)(C)OCCN(CCON1C(=O)c2ccccc2C1=O)CCON1C(=O)c2ccccc2C1=O`, 56 to 58 °C. Under `Cn1ncc(C(=O)c2ccc(S(C)(=O)=O)c(C3=NC(C)(C)CO3)c2Cl)c1O` stands 132 to 135 °C; under `CS(=O)(=O)c1ccc(-c2cnn(-c3cccc(Br)c3)c(=O)c2-c2ccc(F)cc2)cc1`, 210 to 212 °C; under `ClCCn1c(-c2ccccc2)nc2cc(CN3CCN(C(c4ccccc4)c4ccccc4)CC3)ccc21`, 174 to 180 °C. `Cc1oc(-c2ccccc2)nc1Cc1cc2cc(C=CC=C3OC(=O)NC3=O)ccc2o1` registered a melting point of 237 to 239 °C. For `N#CSc1nc(Cl)ncc1Cl` the value was 160 to 162 °C; for `N#Cc1ccc(C(=O)N[C@H]2CC[C@H](CCN3CCN(c4nccc5c4CCO5)CC3)CC2)cc1`, 244 °C.

`Fc1ccc(CBr)c(I)c1` registered a melting point of 71 to 73 °C. For `CN1C(=O)Cn2c(nnc2C(F)(F)F)-c2cc(Cl)ccc21` the value was 186 to 187 °C; for `Cc1cc(Cl)c2cc(F)c(OCc3ccccc3)cc2n1`, 110 to 111 °C. For `Cc1ccc2[nH]c(=O)c(=O)[nH]c2c1CN(C)Cc1ccccc1` the value was 205 to 206 °C.

`O=C1COC(c2ccccc2)(c2ccccc2)CCN1Cc1ccccc1` yielded a melting point of 185 to 186 °C. The molecule `CCOC(=O)Cc1sc(Sc2cc(C(=O)OC)c3ccccc3n2)nc1C` gave a melting point of 128 to 131 °C. For `COc1cc(OC)nc(Oc2cccc(F)c2)n1` the value was 45 °C; for `COc1cc2c(cc1SCC(=O)O)oc1ccccc12`, 180 to 182 °C; for `C=COCCONC(=O)c1cc(Br)c(F)c(F)c1Nc1ccc(I)cc1F`, 128 to 130 °C. For `CCOC(=O)c1c(C)nc2sc3c(c2c1-c1ccccc1)CCCC3` the value was 118 to 120 °C; for `N#Cc1c(Cl)nc2n(c1=O)CCS2`, 148 to 150 °C.
